According to paper PMC12844257, “Click Chemistry-Enabled Parallel Synthesis of N-Acyl Sulfonamides and Their Evaluation as Carbonic Anhydrase Inhibitors” (Molecules, 2026):
Several values for one entry are separate records, joined by “and”; a condition that tells them apart may be missing. Equal entries are not always repeated. Where two headings read alike, the source gives them in different places.

Key:
[1] = molecular target: T1, hCA-IX (catalytic domain) (Homo sapiens, UniProt Q16790); assay: Thermal shift assay (TSA / differential scanning fluorimetry); type: binding; conditions: for ΔTm, median: at 40 µM compound, n = 4
[2] = molecular target: hCA-II (full-length protein) (Homo sapiens, UniProt P00918); assay: as above; conditions: for Tm: hCA-II
hCA-II = molecular target: T2, hCA-II (Homo sapiens, UniProt P00918); assay: hCA esterase activity inhibition assay (p-nitrophenyl acetate hydrolysis) with IC50 determination; type: biochemical
T2 construct: recombinant hCA-IX (catalytic domain) and hCA-II (full-length protein); made in house; host or cells: E. coli
Procedure: (§1) The catalytic activity of hCA-II and hCA-IX was monitored through the enzymatic hydrolysis of p-nitrophenyl acetate. […]
(§2) hCA esterase activity inhibition screening assay (with IC50 determination) The protocol was adapted from the work by Wu and co-authors.3 Briefly, the catalytic activity of human hCA-IX (catalytic domain) and hCA-II recombinant proteins was monitored by following the hydrolysis of p-nitrophenyl […]
(§3) prepared in DMSO) as a reference compound, were titrated from 200 µM to 0.01 µM at 3× serial dilutions (10-point […]
(§4) HCl, 200 mM NaCl, pH 7.5), and aliquoted into the assay-ready plates with tested compounds immediately prior to the analysis using an automated multichannel dispenser Multidrop Combi (Thermo Fischer Scientific).
(§5) The products of the hydrolysis reaction are acetate and nitrophenolate, which ionizes to give a bright yellow anion […]
(§6) The compounds were formatted into 384-well plates in the following manner. The first two columns (n = 32 wells) […]
(§7) In between, the tested compounds were placed at the defined dilution step of the 10-points concentration curve, each point of which was a quadruplicate (n = 4 wells). Thus, the […]
(§8) deviation of <0.05, were used for further assessment of each point of inhibition curves; they were not shown in the […]
(§9) performed with Labcyte Echo liquid handler to prepare assay-ready plates. Reaction was run in 25 µL of assay buffer […]
(§10) Enzymatic reactions were initiated by pipetting 5 mM stock solution of 4-nitrophenyl acetate (4-NPA) in ethanol to each well (final concentration in the reaction mixture – 0.5 mM for hCA-II and 0.9 mM for hCA-IX). The final reaction volume was 27.5 µL. The enzyme activity was evaluated by monitoring the production of colored product, 4- […]
(§11) SpectraMax M5 (Molecular Devices). The assay was performed twice for each enzyme.
(§12) Each data point of the titration curve was calculated as average of aggregate data value of four measurements per each concentration (technical replicate for each concentration n = 4). The IC50 values were calculated using GraphPad […]
(§13) for maximum inhibition of the enzyme (as described above) and apply this value for further calculation of the percent […]
(§14) Secondly, it was also titrated as one of the tested compounds to ensure that the assay is performing properly withing the given range of the known inhibitor […]
(§15) compounds in Figures S4 and S5.

[3] = molecular target: T1, hCA-IX (catalytic domain); assay: as above; type: biochemical
Procedure: as §1, §2, §3, §4, §5, §6, §7, §8, §9, §10, §11, §12, §13, §14, §15

[4] = 200 nM hCA-II, 0.5 mM 4-NPA, 10-point curve, n = 4, read-out: IC50
[5] = hCA-II, bound stated, read-out: potency (IC50)
[6] = 917 nM hCA-IX, 4-NPA, 10-point curve, n = 4, read-out: IC50
[7] = hCA-IX, bound stated, read-out: potency (IC50)

A Tm ([1]; screening at 20 µM) of 56.80 °C, a ΔTm ([1]; screening at 20 µM) of 1.17 °C and a Tm ([1]; screening at 40 µM) of 56.98 °C were found for `COCC(=O)NS(=O)(=O)c1ccc(-c2cn(CCN(C)Cc3cccc(F)c3)nn2)cc1` [4{16,7,19}] in this work. It also gave a ΔTm ([1]; screening at 40 µM) of 0.92 °C, a Tm ([2]; screening at 20 µM) of 51.10 °C and a Tm ([2]; screening at 40 µM) of 49.58 °C. The ΔTm at 20 µM ([2]; read-out: ΔTm) was -3.22 °C, the ΔTm at 40 µM ([2]; read-out: ΔTm, median) was -4.95 °C and the IC50 (hCA-II; [4]) was 0.2 µM. For the same molecule, the IC50 (hCA-II; [5]) was under 10 µM, the IC50 [3, 6] was 1.1 µM and 1.11 µM and the IC50 [3, 7] was under 10 µM.
With `Cc1cc(C(=O)NS(=O)(=O)c2ccc(-c3cn(CCN(C)Cc4cccc(F)c4)nn3)cc2)ccn1` [4{16,7,28}] the “ΔTm, median” value [1] was 1.18 °C, the Tm ([1]; screening at 20 µM) was 56.77 °C and the ΔTm ([1]; screening at 20 µM) was 1.14 °C. For the same molecule, the Tm ([1]; screening at 40 µM) was 57.24 °C, the Tm ([2]; screening at 20 µM) was 54.35 °C and the Tm ([2]; screening at 40 µM) was 51.97 °C. For the same molecule, the ΔTm at 20 µM ([2]; read-out: ΔTm) was 0.03 °C, the ΔTm at 40 µM ([2]; read-out: ΔTm, median) was -2.55 °C and the IC50 (hCA-II; [4]) was 1.7 µM. For the same molecule, the IC50 (hCA-II; [5]) was under 10 µM, the IC50 ([3]; 917 nM hCA-IX, 4-NPA, 10-point curve, n = 4, listed as 4(16,7,28), read-out: IC50) was 7.1 µM and the IC50 [3, 6] was 7.13 µM. For the same molecule, the IC50 [3, 7] was under 10 µM.
`O=C(NS(=O)(=O)c1ccc(-c2cn(CC3COc4ccccc4O3)nn2)cc1)c1cnsc1` (stereo not drawn) [4{17,7,27}] was tested, and the “ΔTm, median” value [1] was 1.44 °C, the Tm ([1]; screening at 20 µM) was 56.91 °C and the ΔTm ([1]; screening at 20 µM) was 1.28 °C. It also gave a Tm ([1]; screening at 40 µM) of 57.51 °C, a Tm ([2]; screening at 20 µM) of 54.82 °C and a Tm ([2]; screening at 40 µM) of 54.73 °C. The ΔTm at 20 µM ([2]; read-out: ΔTm) was 0.5 °C, the ΔTm at 40 µM ([2]; read-out: ΔTm) was 0.21 °C and the IC50 (hCA-II; [4]) was 6.1 µM and 6.07 µM. It also gave an IC50 [3, 6] of 23.4 µM.
For `Cc1cc(C(=O)NS(=O)(=O)c2cccc(-n3cc(-c4ccc5nonc5c4)nn3)c2)on1` [7{2,21,60}], the “ΔTm, median” value [1] was 1.17 °C, the Tm ([1]; screening at 20 µM) was 55.81 °C and the ΔTm ([1]; screening at 20 µM) was 0.18 °C. It also gave a Tm ([1]; screening at 40 µM) of 57.23 °C, a Tm ([2]; screening at 20 µM) of 55.24 °C and a Tm ([2]; screening at 40 µM) of 55.22 °C. For the same molecule, the ΔTm at 20 µM ([2]; read-out: ΔTm) was 0.92 °C, the ΔTm at 40 µM ([2]; read-out: ΔTm) was 0.7 °C and the IC50 (hCA-II; [4]) was 8.7 µM and 8.74 µM. It also gave an IC50 [3, 6] of 17.3 µM.
